Assay [1] relates to acute thrombosis in the pulmonary artery. Briefly: Acute thrombosis (collagen plus epinephrine i.v.) in mice, recovery from paralysis. Format: in vivo. The method, then: A mixture of collagen (300:μg/kg) plus epinephrine (30:μg/kg) was injected into the tail vein of mice (ICR; […], the same mice were employed in all of the following experiments) to induce massive, acute thrombosis in the pulmonary artery. Thus, an acute thrombosis model, in which mice were paralyzed in 1-3 min after the injection and most of them died within 15 min was prepared. To investigate the effect of the compounds of Chemical Formulas 1 and 2 on the acute thrombosis, either of the compounds was orally administered to mice for 1 or 3 days. The intravenous injection of the mixture of collagen and epinephrine was conducted 1 hour after the final oral administration. An observation was taken to examine the mortality change and the recovery from the paralysis and the results are given in Tables 4 and 5, below.
Most of the mice were paralyzed within 1 min after the injection, following dilation of the pupils, difficult breathing, and convulsions. Most of the mice either died within 5 min or were subjected to paralysis for 15 min or longer. Only a few of them recovered from the paralysis.

In assay [2] the test system is thrombus formation in AVS tube. Briefly: Thrombus formation in arterio-venous shunt (AVS) tube in rats. The format is in vivo. The protocol: An AVS tube was prepared. For this, a scalp vein set was cut into a length of 18 cm, and each end was connected to a 18G syringe needle while a 100% cotton thread 5 cm long was fixed to the center of the tube. Rats were anesthetized with ketamine (250 mg/kg) by injection (i.m.) and underwent laparotomy. An AVS tube filled with saline was installed between the abdominal aorta and the renal vein in such a way that its one syringe needle was inserted in the abdominal aorta and the other syringe needle was inserted in the renal vein. Blood was allowed to pass through the AVS tube so as to form thrombus on the cotton thread. After circulation of blood through the AVS tube for 15 min, the thread was taken out from the AVS tube. The weight of the thrombus formed on the cotton thread was determined by weighing the thread.

Another assay concerns the target α-receptor. Briefly: Binding affinity to α-adrenoceptor, [3H]prazosin, rat cerebral cortical membrane. The method, then:
For this, the cerebral cortex obtained from rats (Sprague-Dawley, 250±20 g; unless particularly mentioned, the same rats were used in the following experiments) was homogeneously mixed with a 20× buffer (50 mM Tris, 5 mM MgSO4, 1 mM EDTA, 1 mM ascorbic acid, pH 7.7) and then, centrifuged three times at 35,000×g for 15 min and the pellet was stored at −70° C. A solution of 5 mg of the pellet in 1 ml of the buffer was incubated, along with [^3H]prazosin (200 pM) and samples, at 25° C. for 30 min followed by adding 10 ml of a buffer (50 mM Tris, pH 7.7) to quench the binding reaction. The resulting solution was filtered through a Whatman GF/C glass microfiber filter which was then shaken for 2 hours while being completely submerged in a scintillation cocktail. The radioactivity was measured using a scintillation counter (Beckman, LS6500)

A word on the Kd: it is the free concentration of one partner at which half of the binding sites on the other are occupied at equilibrium, for simple one-to-one binding. Higher therefore signals weaker binding.

`CC(=O)Oc1ccccc1C(=O)O` [Aspirin, reference compound]: the “Mice Recovered, Number” value is 11 in assay [1] (50 mg/kg orally once for three successive days, recovered within 15 min) and 32 in assay [1] (50 mg/kg orally once, recovered from thrombotic paralysis within 15 min). Also, the “Mice Recovered, %” value in assay [1] (50 mg/kg orally once for three successive days, recovered within 15 min, control 20%) came to 55%; in assay [1] (50 mg/kg orally once, recovered within 15 min, control 17%), 52%. In addition, the “% Inhibition of thrombus formation” value in assay [2] (50 mg/kg orally once a day for successive three days) was 12.4%; in assay [2] (50 mg/kg orally once, first series, control 33.61 mg), 40.8%; in assay [2] (50 mg/kg orally once, second series, control 39.54 mg) it was 36.3%. Also, the “Weight (mg) of thrombus” value in assay [2] (50 mg/kg orally once a day for successive three days, control 42.67 ± 5.381) was determined as 37.37 ± 7.369 mg. Moreover, the “Weights (mg) of thrombus” value in assay [2] (50 mg/kg orally once, first series, control 33.61 ± 7.620) is reported as 19.89 ± 7.213 mg; in assay [2] (50 mg/kg orally once, second series, control 39.54 ± 5.625), 25.18 ± 6.725 mg.

For `COc1cc2nc(N3CCN(C(=O)c4ccco4)CC3)nc(N)c2cc1OC` [prazosin, reference compound], the equilibrium dissociation constant (Kd) on α-receptor was determined as 0.134 ± 0.00891 nM.

For the origin of these results see patent publication US6562837B1, “Use of tetrahydroisoquinoline compounds for the treatment of septicemia” (Korea Institute of Science & Technology, priority 1998, dated 2003).
